Laboratory results taken from patent US9272016B2, “Methods to enhance RNAi oligonucleotide delivery to respiratory epithelial cells” (University of Iowa Research Foundation, priority 2012, dated 2016).
Where a SMILES comes first, the peptide text is derived from it. [ ]: non-standard residue; d: D form. Nle = CCCC[C@H](N)C(=O)O; d = 2'-deoxy (DNA); r = 2'-OH (RNA); {P} = phosphate

What was measured:
Type in all cases: cell-based
HPRT mRNA [1] = assay: Pretreatment of well differentiated pig airway epithelia before HPRT siRNA transfection, qPCR; details: for silencing of HPRT mRNA after pretreatment: well differentiated PAE, KGF 50 ng/ml 24 h, EGTA 6 mM 30 m, LLnL 40 μM 24 hrs, then 250 nM HPRT siRNA with RNAiMAX or Transductin; for reduction in HPRT mRNA levels: 6 h drug pretreatment at Cmap or literature concentration, then siRNA-Transductin 24 h (data not shown)
Protocol: (§1) For airway epithelia that were either well or poorly differentiated, transfection was done mostly according to the manufacturer's protocol. In all cases, the apical surface of epithelia was washed twice with PBS before adding the transfection mixture to the apical surface. The mixture was then left on the cells for 24 h for all transfection reagents. For PK1 cells, reverse transfection was performed in a 48-well plate by first adding the siRNA-RNAiMAX reagent mixture onto the plate and then adding the dispersed cells (40,000 cells) on top of the mixture and allowing the cells to adhere and establish growth for 24 h. Before some transfections, pretreatment of cells with various chemicals were performed: Keratinocyte Growth Factor (KGF; Prospec, East Brunswick, N.J.) 50 ng/ml added both apically and basolaterally for 24 h; EGTA 6 mM added apically for 30 m; N-Acetyl-L-Leucyl-L-Leucyl-L-Norleucinal (LLnL; ICN Biochemicals, Inc, Costa Mesa, Calif.) 40 μM added both apically and basolaterally for 24 hrs; human Epidermal Growth Factor (EGF; Sigma-Aldrich, St. Louis, Mo.) 100 μg/ml, added apically for 15 m.
(§2) Total RNA was isolated using SV96 RNA isolation kit (Promega), according to manufacturer's protocol. Two hundred fifty ng of total RNA were reverse transcribed using oligo (dT) (Roche, Indianapolis, Ind.) and random hexamers (Invitrogen, Grand Island, N.Y.) and Superscript II (Invitrogen, Grand Island, N.Y.) according to manufacturer's instructions. One-fifteenth of the cDNA was then amplified and analyzed by Taqman assay in the 7900 Real Time PCR System (Applied Biosystems) using synthesized primer-probe pairs (IDT, Coralville, Iowa), reaction buffer and Immolase DNA polymerase (Bioline, Taunton, Mass.). The reaction mix was contained in a total volume of 10 μl and the reaction condition was an initial cycle of 95° C. for 10 min, then 40 cycles of 95° C. for 15 s and 60° C. for 1 min. All data were normalized to the internal standard, RPL4 mRNA for pig airway samples and SFRS9 mRNA for human airway samples. Absolute quantification of an mRNA target sequence within an unknown sample was determined by reference to a standard curve. The standard curve was based on the real-time PCR amplification of standard amounts of the specific gene in a control NC1 cDNA.
(§3) Wortmannin was purchased from Sigma (St. Louis, Mo.) as a ready to use solution. […] Monensin was purchased from Sigma (St. Louis, Mo.) and was dissolved in water. For experiments with drugs, the cells were pre-treated with drugs for 6 h usually at a concentration that was used in the Cmap study (Lamb J et al., The connectivity map: Using gene-expression signatures to connect small molecules, genes, and disease. Science 2006; 313(5795):1929-1935) or in other published studies. After the drug treatment, the cells were transfected with siRNA as described before.

human airway epithelia = assay: Confocal imaging of DIG-labeled siRNA uptake in human airway epithelia; details: cells transfected with DIG-siRNA, fluorescent images, species not stated (data not shown)
Protocol: The primary human airway epithelia grown at air-liquid interface were transfected with the DIG-labeled siRNA at a concentration of 250 ng/ml after complexing with Transductin. The transfection mixture was left on the apical surface for 2 h. At the end of this period, the cells were fixed in 2% formaldehyde, permeabilized in 0.2% Triton-x-100 and blocked in 1% BSA for 1 h. The cells were then stained with mouse antibody to DIG (Roche Biochemicals) for 1 h followed by either Alexa 488 labeled goat anti-mouse secondary antibody for 1 h followed by Alexa 488 labeled rabbit […] antibody (Invitrogen) for 1 or in some cases with Alexa 564 goat anti-mouse secondary antibody for 1 h. The cells were finally stained with nuclear stain, ToPro 3 for 10 minutes. The filter, containing the cells, was removed from the culture insert by cutting the edges with razor blade and then mounted onto a slide by the use of Vectashield. The slide was visualized by confocal microscopy.

CFTR = assay: LY-294002 pretreatment of human airway cells before CFTR siRNA transfection, qPCR; parameters: dose or concentration left out as unconfirmed; details: siRNA with Transductin, 24 h, vs nontargeting control (FIG. 12b)
Protocol: (§4) For airway epithelia that were either well or poorly differentiated, transfection was done mostly according to the manufacturer's protocol. In all cases, the apical surface of epithelia was washed twice with PBS before adding the transfection mixture to the apical surface. The mixture was then left on the cells for 24 h for all transfection reagents. For PK1 cells, reverse transfection was performed in a 48-well plate by first adding the siRNA-RNAiMAX reagent mixture onto the plate and then adding the dispersed cells (40,000 cells) on top of the mixture and allowing the cells to adhere and establish growth for 24 h. […]
(§5) Total RNA was isolated using SV96 RNA isolation kit (Promega), according to manufacturer's protocol. […] One-fifteenth of the cDNA was then amplified and analyzed by Taqman assay in the 7900 Real Time PCR System (Applied Biosystems) using synthesized primer-probe pairs (IDT, Coralville, Iowa), reaction buffer and Immolase DNA polymerase (Bioline, Taunton, Mass.). […] Absolute quantification of an mRNA target sequence within an unknown sample was determined by reference to a standard curve. […]
(§6) Wortmannin was purchased from Sigma (St. Louis, Mo.) as a ready to use solution. […]

HPRT mRNA [2] = assay: Pretreatment of well-differentiated human airway epithelia before HPRT siRNA transfection, qPCR; details: for reduction in HPRT mRNA levels: 6 h drug pretreatment at Cmap or literature concentration, then siRNA-Transductin 24 h (data not shown); for decrease in HPRT mRNA levels: vs nontargeting controls (FIG. 5c)
Protocol: as §1, §2, §3

SIN3A = assay: LY-294002 pretreatment of human airway cells before SIN3A siRNA transfection, qPCR; parameters: dose or concentration left out as unconfirmed; details: siRNA with Transductin, 24 h, vs nontargeting control (FIG. 12a)
Protocol: as §4, §5, §6

IL-8 = IL-8 siRNA transfection of poorly differentiated pig airway epithelia (2 and 5 days old), qPCR; details: for silencing of IL-8: 250 ng siRNA with Transductin, 24 h (FIG. 11a); for knockdown of IL-8: poorly differentiated pig airway cultures, siRNA 250 ng, 24 h (FIG. 9a)
Protocol: as §1
as §2, with “cDNA. PCR efficiency for all reactions was within the acceptable margin of 90-110%. All the results of the samples were presented as remaining mRNA level in comparison to the mRNA level in the control samples (NC1), which was normalized to 100%.” for “cDNA.”

pig HPRT = assay: Dicer-substrate siRNA silencing in PK1 cells, qPCR of HPRT mRNA; details: reverse transfection with RNAiMAX, 1 nM and 10 nM siRNA, 24 h, vs nontargeting control NC1
Protocol: as §4, §5
siRNAs were designed and synthesized to specifically target pig HPRT (ssHPRT) and IL-8 (IL-8 1098 and IL-8 1466). […] Quantitative real-time PCR was performed to measure the extent of mRNA reduction. […]

## O=C(O)CN(CCOCCOCCN(CC(=O)O)CC(=O)O)CC(=O)O [EGTA]
HPRT mRNA [1]
  silencing of HPRT mRNA after pretreatment: did not result in silencing

## CCCC[C@@H](C=O)NC(=O)[C@H](CC(C)C)NC(=O)[C@H](CC(C)C)NC(C)=O [LLnL, N-Acetyl-L-Leucyl-L-Leucyl-L-Norleucinal] (Ac-Leu-Leu-[Nle]-aldehyde)
HPRT mRNA [1]
  silencing of HPRT mRNA after pretreatment: no effect on silencing

## O=c1cc(N2CCOCC2)oc2c(-c3ccccc3)cccc12 [LY-294002, 2-morpholin-4-yl-8-phenylchromen-4-one]
Human airway epithelia
  siRNA uptake: improved siRNA uptake
CFTR
  reduction in mRNA levels of CFTR: 20%
HPRT mRNA [2]; human airway cells, several donors (data not shown)
  range of silencing effects (inhibition): 10-55%
HPRT mRNA [2]; human epithelia, 10 μM for 6 h apically, vs nontargeting control (FIG. 5a)
  silencing of HPRT: about 40%
SIN3A
  reduction in mRNA levels of SIN3A: 25%
HPRT mRNA [1]; pig airway cells, several donors (data not shown)
  range of silencing effects (inhibition): 10-20%
HPRT mRNA [1]; pig epithelia, 10 μM for 6 h apically, vs nontargeting control (FIG. 5b)
  silencing of HPRT: about 20%

## C=C1CC[C@H](O)C/C1=C/C=C1\CCC[C@]2(C)[C@@H]([C@H](C)/C=C/[C@H](C)C(C)C)CC[C@@H]12 [ergocalciferol]
HPRT mRNA [2]; human epithelia
  reduction in HPRT mRNA levels: no reduction
HPRT mRNA [1]; pig epithelia
  reduction in HPRT mRNA levels: no reduction

## O=S(=O)(c1cccc2cnccc12)N1CCCNCC1 [fasudil]
HPRT mRNA [2]; human epithelia
  reduction in HPRT mRNA levels: no reduction
HPRT mRNA [1]; pig epithelia
  reduction in HPRT mRNA levels: no reduction

## O=C1CC[C@@]2(O)[C@H]3Cc4ccc(O)c5c4[C@@]2(CCN3CC2CC2)[C@H]1O5 [naltrexone]
HPRT mRNA [2]; human epithelia
  reduction in HPRT mRNA levels: no reduction
HPRT mRNA [1]; pig epithelia
  reduction in HPRT mRNA levels: no reduction

## CC(=O)O[C@H]1C(=O)[C@@]2(C)[C@H]([C@H](OC(=O)c3ccccc3)[C@]3(O)C[C@H](OC(=O)[C@H](O)[C@@H](NC(=O)c4ccccc4)c4ccccc4)C(C)=C1C3(C)C)[C@]1(OC(C)=O)CO[C@@H]1C[C@@H]2O [paclitaxel]
HPRT mRNA [2]; human epithelia
  reduction in HPRT mRNA levels: no reduction
HPRT mRNA [1]; pig epithelia
  reduction in HPRT mRNA levels: no reduction

## COC[C@H]1OC(=O)c2coc3c2[C@@]1(C)C1=C(C3=O)[C@@H]2CCC(=O)[C@@]2(C)C[C@H]1OC(C)=O [wortmannin]
HPRT mRNA [2]; human airway cells, 10 nM pretreatment
  decrease in HPRT mRNA levels: about 20%
HPRT mRNA [2]; human airway cells, 40 nM pretreatment
  decrease in HPRT mRNA levels: ~30%

## IL-8 1098: Dicer-substrate siRNA against pig IL-8, SEQ ID NO: 5 and 6 (chain 1 GGCAAAUUGUUAAACGAACAGAATA; chain 2 UAUUCUGUUCGUUUAACAAUUUGCCAA; chain 1: sugars from the 5' end r23 d2, 5' {P}, backbone not given here; chain 2: RNA, backbone not given here)
IL-8; 2-day old pig airway epithelia
  silencing of IL-8: Silencing of IL-8 is seen
IL-8; 5-day old pig airway epithelia
  silencing of IL-8: not in 5-day old epithelia
IL-8
  knockdown of IL-8: Knockdown of IL-8 is seen

## IL-8 1466: Dicer-substrate siRNA against pig IL-8, SEQ ID NO: 7 and 8 (chain 1 UGAGUGUAACUAUAGAACAUUUACA; chain 2 UGUAAAUGUUCUAUAGUUACACUCACA; chain 1: sugars from the 5' end r23 d2, 5' {P}, backbone not given here; chain 2: RNA, backbone not given here)
IL-8; 2-day old pig airway epithelia
  silencing of IL-8: Silencing of IL-8 is seen
IL-8; 5-day old pig airway epithelia
  silencing of IL-8: not in 5-day old epithelia
IL-8
  knockdown of IL-8: Knockdown of IL-8 is seen

## ssHPRT: Dicer-substrate siRNA against pig HPRT, SEQ ID NO: 1 and 2 (chain 1 CCAGUAAAGUUAUCACAUGUUCUAG; chain 2 CUAGAACAUGUGAUAACUUUACUGNGG; chemistry not fully specified)
Pig HPRT
  decrease of targeting mRNA (HPRT): more than 90%
